4 compounds from PMC7922564, “Molecular Insights into an Antibiotic Enhancer Action of New Morpholine-Containing 5-Arylideneimidazolones in the Fight against MDR Bacteria” (International Journal of Molecular Sciences, 2021) can be followed below.

Read-outs that look alike come from different tables or passages of the source.

One assay relates to S. aureus USA300 LAC. Nature of the assay: MIC of compounds, S. aureus USA300 LAC. The note with it: Staphylococcus aureus. In kind it is cell-based. As to the method:
(§1) Compounds 14–16 were tested further for their adjuvant-like effect with a set of ten additional S. aureus isolates. Firstly, MIC values of the molecules were evaluated in two clinical MSSA isolates (MM-O058, MM-N072), seven MRSA (USA300 LAC, 5328, LG-N017, MM-O021, R45-CC45, R46-CC22, COL) and one VISA strain (Mu50). Detailed results are presented in the Supplementary section (Table S3).
(§2) Determination of MIC values, i.e., intrinsic antibacterial activity, of products and antibiotics (oxacillin, ampicillin, vancomycin, ciprofloxacin, and erythromycin) in the presence and absence of compounds tested was conducted by the use of a standard 2-fold microdilution method in cation-adjusted Mueller Hinton broth following the Clinical and Laboratory Standards Institute (CLSI) guidelines. The MIC values were detected using an Infinite M200 pro Tecan microplate reader (Tecan® France, SA-Lyon, France). MIC determinations were conducted in 96-well microtiter plates and repeated 3–4 times.
(§3) Initially, MICs of a series of imidazolone derivatives were assessed against susceptible (reference) and MDR strains of staphylococci. Next, MIC values of the aforementioned antibiotics were determined in the absence and presence of imidazolone derivatives to assess the chemosensitizing effect of these compounds. […] 5-arylideneimidazolones and 5-arylidenethiazolones, which precipitated after addition to bacterial suspension in MH II medium, were tested at the highest concentrations at which precipitation was not observed. […] Antibacterial activity of compounds and antibiotics ampicillin, vancomycin, ciprofloxacin, and erythromycin was recorded as the lowest concentration of molecules able to inhibit bacterial growth after 18 h incubation at 37 °C. […] The results are presented as activity gain (A) parameter which was calculated as ratio of MIC of a certain antibiotic (MICAnt) to its MICAnt+Comp, observed in combination with a tested compound (7, 12–16, 19, or 20; Equation (1)). […]

Another assay has as its system S. aureus MM-O021. Nature of the assay: MIC of compounds, S. aureus MM-O021. The note with it: Staphylococcus aureus; MM-O021 (MRSA). In kind it is cell-based. As to the method: as §1, §2, §3
Assay [1] has as its system S. aureus COL. Nature of the assay: MIC of compounds, S. aureus COL. The class given is cell-based. To be noted: Staphylococcus aureus; COL (MRSA). As to the method:
as §1, §2, §3

The test system of a further assay is S. aureus MM-O058. Nature of the assay: MIC reduction assay (antibiotic adjuvant), S. aureus MM-O058. The class given is cell-based, Staphylococcus aureus.
Excerpt: (§4) The adjuvant properties of compounds 14–16 in S. aureus clinical isolates were next tested in combination with oxacillin and the penicillinase-susceptible β-lactam antibiotic, ampicillin. The second β-lactam antibiotic was chosen based on its vulnerability to enzymatic hydrolysis, another important resistance mechanism in S. aureus against penicillin. Therefore, the results of the MIC reduction assay obtained on the activity of arylideneimidazolones combined with oxacillin and ampicillin, respectively, might provide further insights into the possible mechanism of action of the compounds. Complete results are presented in Supplementary (Tables S4 and S5), while condensed in Figure 6, in the case of desired activity noted. […] One possible explanation for the lack of adjuvant activity of compounds in some of the strains selected for this study might be that these strains express PBP2a only when induced by the antibiotic, while others, for which potentiating activity of compounds was observed, produce this protein in high levels straight away.
as §2
(§5) Initially, MICs of a series of imidazolone derivatives were assessed against susceptible (reference) and MDR strains of staphylococci. Next, MIC values of the aforementioned antibiotics were determined in the absence and presence of imidazolone derivatives to assess the chemosensitizing effect of these compounds. […] 5-arylideneimidazolones and 5-arylidenethiazolones, which precipitated after addition to bacterial suspension in MH II medium, were tested at the highest concentrations at which precipitation was not observed. […] Antibacterial activity of compounds and antibiotics ampicillin, vancomycin, ciprofloxacin, and erythromycin was recorded as the lowest concentration of molecules able to inhibit bacterial growth after 18 h incubation at 37 °C. The incubation of bacterial strains exposed to oxacillin paired with compounds tested was conducted at 35 °C and extended to 24 h due to frequent occurrence of heterogeneity among MRSA strains. The results are presented as activity gain (A) parameter which was calculated as ratio of MIC of a certain antibiotic (MICAnt) to its MICAnt+Comp, observed in combination with a tested compound (7, 12–16, 19, or 20; Equation (1)). (1) A=(MICAnt/MICAnt+Comp)

A further assay has as its system S. aureus MM-N072. Description: MIC reduction assay (antibiotic adjuvant), S. aureus MM-N072. The class given is cell-based, Staphylococcus aureus.
Excerpt: as §4, §2, §5

The next assay has as its system S. aureus R46-CC22. Nature of the assay: MIC reduction assay (antibiotic adjuvant), S. aureus R46-CC22. In kind it is cell-based, Staphylococcus aureus.
Excerpt: as §4, §2, §5

A further assay deals with S. aureus R45-CC45. Description: MIC reduction assay (antibiotic adjuvant), S. aureus R45-CC45. To be noted: ampicillin; for A (activity gain): range over repetitions. The class given is cell-based, Staphylococcus aureus.
Excerpt: as §4, §2, §3

In assay [2] the test system is S. aureus COL. Description: MIC reduction assay (antibiotic adjuvant), S. aureus COL. The class given is cell-based, Staphylococcus aureus. To be noted: ampicillin.
Excerpt: as §4, with “away. […]” for “away.”
Initially, MICs of a series of imidazolone derivatives were assessed against susceptible (reference) and MDR strains of staphylococci. Next, MIC values of the aforementioned antibiotics were determined in the absence and presence of imidazolone derivatives to assess the chemosensitizing effect of these compounds. […] Antibacterial activity of compounds and antibiotics ampicillin, vancomycin, ciprofloxacin, and erythromycin was recorded as the lowest concentration of molecules able to inhibit bacterial growth after 18 h incubation at 37 °C. […] The results are presented as activity gain (A) parameter which was calculated as ratio of MIC of a certain antibiotic (MICAnt) to its MICAnt+Comp, observed in combination with a tested compound (7, 12–16, 19, or 20; Equation (1)). […]

Assay [3] relates to K. aerogenes Ea-294, Ea-308 (devoid of AcrAB). Nature of the assay: MIC of compounds, K. aerogenes Ea-294, Ea-308. The class given is cell-based. The note with it: Klebsiella aerogenes, read-out: Minimal Inhibitory Concentration (MIC).
Excerpt: (§6) A subset of compounds, namely 7, 12–16, 19, 20, was also examined for the potential to increase the effectiveness of the antibiotics chloramphenicol, erythromycin, doxycycline, and the fluoroquinolone antibiotic norfloxacin, which all are substrates for AcrAB-TolC in K. aerogenes. In addition to strain Ea-289, the adjuvant-like effect of the compounds was investigated in strain CM-64, which also overexpresses the AcrAB-TolC efflux pump, although it has no changes in porin content, and in the Ea-289 derivatives, i.e., Ea-294 and Ea-308, which are devoid of AcrAB (Table S17, Supplementary).
as §2
(§7) MIC values of 5-arylideneimidazolone derivatives were determined following CLSI recommendations as in the methods described for S. aureus (Section 3.3.1).

For another assay, the system named is K. aerogenes CM-64. Description: MIC reduction assay (antibiotic adjuvant), K. aerogenes CM-64.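 Further: compound at no more than one quarter of its own MIC.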 In kind it is cell-based, Klebsiella aerogenes. The note with it: doxycycline, chloramphenicol, norfloxacin, erythromycin.
Excerpt: as §6, §5, §7

For assay [4], the system named is AcrAB-TolC efflux pump in K. aerogenes strain Ea-289. Nature of the assay: Real-time efflux (RTE) assay, 1,2'-dNA extrusion. To be noted: compound 100 µM; IE=100% total inhibition of efflux. The class given is cell-based, Klebsiella aerogenes. As to the method: Compounds 7, 12–16, 19, and 20 were also assessed for their EPI property in K. aerogenes strain Ea-289 with the use of a real-time efflux (RTE) assay. Results for compounds 16 and 20 were previously described. The experiment is based on the measurement of the extrusion of a fluorescent dye from bacterial cells overproducing efflux pump transporters in the presence and absence of compounds tested. The dye used in this assay, 1,2’ –dinaphthylamine (1,2’-dNA), is a substrate for the AcrAB-TolC efflux pump, and is strongly fluorescent upon incorporation into a phospholipid bilayer, although it is almost non-fluorescent in an aqueous solution [37, 38].
A likewise strong blocking efficacy (IE = 83 %) was also noticed for compound 12, while the lowest inhibitory effect was found for compound 13 (IE = 23 %).
The inhibitory activity of 5-arylideneimidazolone derivatives towards AcrAB-TolC mediated efflux of 1,2’-dNA was detected in K. aerogenes strain Ea-289 by using a real-time fluorometric method. In a first step, bacterial cells were loaded with the environment-sensitive fluorescent membrane probe, 1,2’-dNA, in the presence of the EPI carbonyl cyanide m-chlorophenylhydrazone (CCCP) which inactivated the pump by dissipating membrane potential. Next, compounds tested were added at the concentration of 100 µM and the efflux was energizing by automated injection of glucose at a dose of 50 µM. The fluorescence intensity was measured in a microplate reader (Tecan) with an excitation wavelength of λex = 370 nm and an emission wavelength of λem = 420 nm.

In assay [5] the test system is K. aerogenes Ea-294, Ea-308 (devoid of AcrAB). Description: MIC of compounds, K. aerogenes Ea-294, Ea-308. The class given is cell-based, Klebsiella aerogenes. The note with it: ratio of compound MICs.
Setting [6] is: USA300 LAC (MRSA), read-out: MIC value of compounds.

Regarding `NC1=N/C(=C\c2ccc(-c3ccccc3)cc2)C(=O)N1CCCN1CCOCC1` [Compound 15], the MIC was 125 µM in the assay with S. aureus USA300 LAC (MRSA / USA300, read-out: MIC value of compounds); 250 to 500 µM with S. aureus MM-O021; 250 µM with S. aureus COL [1]; 125 µM in assay [3]. For the same compound, the “A (activity gain)” value was found to be 1 in the assay with S. aureus MM-O058 (ampicillin); 1 in the assay on S. aureus MM-O058 (erythromycin); 1 in the assay with S. aureus MM-N072 (ampicillin); 1 in the assay with S. aureus MM-N072 (erythromycin); 2 with S. aureus R46-CC22 (ampicillin); 1 in the assay with S. aureus R46-CC22 (ciprofloxacin). Also, the “A (activity gain)” value in the assay with S. aureus R45-CC45 is on record as 4-8; with S. aureus COL [2], 1; in the assay with K. aerogenes CM-64, 1. Further, the “A (AMP), gain of activity, arithmetic mean” value in the assay with S. aureus R45-CC45 (arithmetic mean of 3-4 repetitions) stood at 6. Moreover, in assay [4], the “Inhibition efficiency (IE) towards extrusion of 1,2'-dNA” value (“Inhibition efficiency” below) came out at 72%. In addition, the “more effective in strains Ea-294 and Ea-298 when compared to the parental strain Ea-289” value in assay [5] is at least 4 fold.

In the case of `NC1=N/C(=C\c2ccc(-c3ccccc3)cc2)C(=O)N1CCN1CCOCC1` [Compound 14], the MIC is at least 500 µM in the assay on S. aureus USA300 LAC (setting [6]), at least 500 µM in the assay with S. aureus MM-O021, at least 500 µM in the assay with S. aureus COL [1] and 2000 µM in [3]. Besides, the “A (activity gain)” value in the assay on S. aureus MM-O058 (ampicillin) turned out to be 1; in the assay with S. aureus MM-O058 (erythromycin), 1; with S. aureus MM-N072 (ampicillin), 1; in the assay on S. aureus MM-N072 (erythromycin), 1; in the assay with S. aureus R46-CC22 (ampicillin), 2; in the assay with S. aureus R46-CC22 (ciprofloxacin), 1. Also, the “A (activity gain)” value with S. aureus R45-CC45 was 2-4; in the assay on S. aureus COL [2], 1; with K. aerogenes CM-64, 1. For the same compound, the “Inhibition efficiency” value in assay [4] was 57%.

As for `NC1=N/C(=C\c2ccc3c(c2)Cc2ccccc2-3)C(=O)N1CCCN1CCOCC1` [Compound 19], the MIC in assay [3] worked out at 250 µM. In the assay on K. aerogenes CM-64, the “A (activity gain)” value is given as 1. For the same compound, the “Inhibition efficiency” value in assay [4] worked out at 90%. The “more effective in strains Ea-294 and Ea-298 when compared to the parental strain Ea-289” value in [5] is at least 4 fold.

With `NC1=N/C(=C\c2cccc(Oc3ccccc3)c2)C(=O)N1CCCN1CCOCC1` [Compound 16], the MIC came to 250 µM in the assay with S. aureus USA300 LAC (setting [6]), 250 µM with S. aureus MM-O021, 250 µM in the assay with S. aureus COL [1] and 500 µM in assay [3]. In addition, the “A (activity gain)” value with S. aureus MM-O058 (ampicillin), in the assay with S. aureus MM-O058 (erythromycin), in the assay with S. aureus MM-N072 (ampicillin), with S. aureus MM-N072 (erythromycin), with S. aureus R46-CC22 (ampicillin) and in the assay on S. aureus R46-CC22 (ciprofloxacin) was 1 in each case. The “A (activity gain)” value in the assay with S. aureus R45-CC45 and in the assay on S. aureus COL [2] was 1 throughout. The “more effective in strains Ea-294 and Ea-298 when compared to the parental strain Ea-289” value in assay [5] is at least 4 fold.
